One compound from publication PMC10681007, “Targeted Degradation of XIAP is Sufficient and Specific to Induce Apoptosis in MYCN-overexpressing High-risk Neuroblastoma” (Cancer Research Communications, 2023) can be followed below.

Common to all, as to assay type: cell-based, Human
The test system of one experiment is SK-N-AS. Nature of the experiment: Drug interactions assay (Chou-Talalay). The following applies: in combination with A4. As for the experimental part: (§1) Drug interactions between XIAP-specific antagonist A4 and vincristine or topotecan were determined using the combination index (CI) by Chou and Talalay which was established on the basis of the mass-action law principle to derive the median-effect equation ([25]). […] Cell viability was measured and CI and dose reduction index (DRI) values were quantified using the CompuSyn software by Chou–Talalay. Areas under the dose–response curves were calculated using the trapezoidal method and compared using paired t test.
DRI <1 denotes unfavorable dose reduction and DRI >1 denotes favorable dose reduction.

For another experiment, the system named is BE(2)-C. Put plainly: Drug interactions assay (Chou-Talalay CI, DRI). The settings on record: vincristine dose axis, 48 hours. The procedure: as §1
(§2) For treatment of high-risk neuroblastoma, current standard-of-care utilizes intensive multimodal therapy involving combinations of multiple cytotoxic agents. […] To analyze potential drug interactions, treatment of BE(2)-C and KELLY cells with A4 in combination with either vincristine or topotecan was examined. Using Chou–Talalay method, the drug interaction effect/type determined by the drug combination (CI) index is as follows: CI <1 (synergistic effect); CI = 1 (additive effect); CI >1 (antagonistic effect).
(§3) CI was generated using CompuSyn software by Chou–Talalay ([25]). CI60–90 represents the average CI at 60%–90% cell death. CI <1 denotes synergistic effect; CI = 1 denotes addictive effect and CI >1 denotes antagonistic effect. […] DRI was generated using CompuSyn software by Chou–Talalay. DRI60–90 represents the average DRI at 60%–90% cell death. DRI <1 denotes unfavorable dose reduction and DRI >1 denotes favorable dose reduction.

The next experiment has as its system KELLY. Nature of the experiment: Drug interactions assay (Chou-Talalay CI, DRI). The settings on record: vincristine dose axis, 48 hours. As for the experimental part: as §1, §2, §3

Counter-ions that a name gives are not always drawn.

As to `CC[C@]1(O)C[C@H]2CN(CCc3c([nH]c4ccccc34)[C@@](C(=O)OC)(c3cc4c(cc3OC)N(C=O)[C@H]3[C@@](O)(C(=O)OC)[C@H](OC(C)=O)[C@]5(CC)C=CCN6CC[C@]43[C@@H]65)C2)C1` [Vincristine, Vincristine sulfate], the “drug interaction with A4” value in the experiment with SK-N-AS is “only additive effect”. Moreover, the “AUC of dose–response curve” value with BE(2)-C was determined as 9.8±0.2 pM* luminescence; with KELLY, 37.5±3.9 pM* luminescence.
